In ChEMBL document CHEMBL1201862, “PubChem BioAssay data set” (2004):
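Protocol summary: plate cells (96-well), add compound at 5 concentrations, incubate 48 h, interpolate endpoints linearly. GI50 is the concentration that inhibits growth by half.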 Calls of active or inactive are those of the source. Rule as the data show it: active = GI50 up to about 1.1 µM and inactive = higher.

What was measured:
Assay in all cases: growth of human tumour cells (NCI), 48 h
KM12 = tested on: KM12
TK-10 = tested on: TK-10
SK-MEL-5 = tested on: SK-MEL-5
SK-MEL-28 = tested on: SK-MEL-28
Hs-578T = tested on: Hs-578T
SN12C = tested on: SN12C
SNB-19 = tested on: SNB-19
UO-31 = tested on: UO-31
HCT-116 = tested on: HCT-116
SW-620 = tested on: SW-620
SK-OV-3 = tested on: SK-OV-3
OVCAR-5 = tested on: OVCAR-5
A549 = tested on: A549
M14 = tested on: M14
OVCAR-8 = tested on: OVCAR-8
SK-MEL-2 = tested on: SK-MEL-2
RPMI-8226 = tested on: RPMI-8226
NCI-H226 = tested on: NCI-H226

Row | SMILES | GI50 (KM12) | GI50 (TK-10) | GI50 (SK-MEL-5) | GI50 (SK-MEL-28) | GI50 (Hs-578T) | GI50 (SN12C) | GI50 (SNB-19) | GI50 (UO-31) | GI50 (HCT-116) | GI50 (SW-620) | GI50 (SK-OV-3) | GI50 (OVCAR-5) | GI50 (A549) | GI50 (M14) | GI50 (OVCAR-8) | GI50 (SK-MEL-2) | GI50 (RPMI-8226) | GI50 (NCI-H226)
1 | CC1CN=C(N(C(=O)Nc2ccc(Cl)cc2)c2cccc(Cl)c2)S1 (stereo not given) | 24.9 µM (inactive) | 15 µM (inactive) | 17.5 µM (inactive) | 28.6 µM (inactive) | 50.1 µM (inactive) | 15.7 µM (inactive) | > 100 µM (inactive) | 37.4 µM (inactive) | 20.4 µM (inactive) | 41.9 µM (inactive) | > 100 µM (inactive) | > 100 µM (inactive) | 25.6 µM (inactive) | 7.24 µM (inactive) | 36.9 µM (inactive) | 16.6 µM (inactive) | > 10 µM (inactive) | 
2 | C=C1Cc2cc(OC)c(OC)c(OC)c2-c2ccc(SC)c(=O)cc21 | < 0.01 µM (active) | 0.916 µM (active) | < 0.01 µM (active) | < 0.01 µM (active) |  | < 0.01 µM (active) |  |  | < 0.01 µM (active) | < 0.01 µM (active) | < 0.01 µM (active) | 0.378 µM (active) | < 0.01 µM (active) | < 0.01 µM (active) | < 0.01 µM (active) | < 0.01 µM (active) | < 0.01 µM (active) | < 0.01 µM (active)
3 | CC1=C(/C(C)=N/NS(=O)(=O)c2ccc(C)cc2)Sc2ccccc2N1 | > 100 µM (inactive) | > 100 µM (inactive) | 47.5 µM (inactive) | > 100 µM (inactive) |  | > 100 µM (inactive) | > 100 µM (inactive) | 57 µM (inactive) | > 100 µM (inactive) | > 100 µM (inactive) | > 100 µM (inactive) | > 100 µM (inactive) | > 100 µM (inactive) | > 100 µM (inactive) | > 100 µM (inactive) | 94.2 µM (inactive) | 56.8 µM (inactive) | > 100 µM (inactive)
4 | CC(C)(C)C(=O)O[C@@H]1COC2C(O)COC21 (stereo not given in full) | > 100 µM (inactive) | > 100 µM (inactive) | > 100 µM (inactive) | > 100 µM (inactive) |  | > 100 µM (inactive) | > 100 µM (inactive) | > 100 µM (inactive) | > 100 µM (inactive) | > 100 µM (inactive) |  | > 100 µM (inactive) | > 100 µM (inactive) | > 100 µM (inactive) | > 100 µM (inactive) |  |  | 
5 | C/C(=N\N(c1ccccc1)c1ccccc1)c1c(O)cc(C)oc1=O | > 100 µM (inactive) | > 100 µM (inactive) |  | > 100 µM (inactive) |  | > 100 µM (inactive) | > 100 µM (inactive) | 25.7 µM (inactive) | 45.1 µM (inactive) | > 100 µM (inactive) | > 100 µM (inactive) |  | 75 µM (inactive) | > 100 µM (inactive) | > 100 µM (inactive) | > 100 µM (inactive) |  | > 100 µM (inactive)
6 | O=[N+]([O-])c1cccc(C2SCc3nc4ccccc4n32)c1 (stereo not given) | > 100 µM (inactive) | > 100 µM (inactive) | 19.6 µM (inactive) | > 100 µM (inactive) |  | 97.3 µM (inactive) | > 100 µM (inactive) | 31.6 µM (inactive) |  | > 100 µM (inactive) | > 100 µM (inactive) | 39.3 µM (inactive) | > 100 µM (inactive) |  | > 100 µM (inactive) | > 100 µM (inactive) |  | 39.6 µM (inactive)
7 | NC(=O)NC1C(C(N)=O)N(Cc2ccccc2)C(=O)N1Cc1ccccc1 (stereo not given) | > 100 µM (inactive) | > 100 µM (inactive) | > 100 µM (inactive) | > 100 µM (inactive) |  |  | > 100 µM (inactive) | > 100 µM (inactive) | > 100 µM (inactive) | > 100 µM (inactive) | > 100 µM (inactive) | 40.7 µM (inactive) | > 100 µM (inactive) | > 100 µM (inactive) | > 100 µM (inactive) | > 100 µM (inactive) | > 100 µM (inactive) | 
8 | Cc1cccc(C(=O)O)c1C(=O)c1cccc2ccccc12 | > 100 µM (inactive) | > 100 µM (inactive) | > 100 µM (inactive) | > 100 µM (inactive) |  | > 100 µM (inactive) | > 100 µM (inactive) | > 100 µM (inactive) | > 100 µM (inactive) | > 100 µM (inactive) | > 100 µM (inactive) | > 100 µM (inactive) | > 100 µM (inactive) | > 100 µM (inactive) | > 100 µM (inactive) | 98.2 µM (inactive) |  | > 100 µM (inactive)
9 | N#CC1C2CCC3(CC2CCN1C(=O)c1ccccc1)OCCO3 (stereo not given) | > 100 µM (inactive) | > 100 µM (inactive) | > 100 µM (inactive) | > 100 µM (inactive) |  | > 100 µM (inactive) | > 100 µM (inactive) | > 100 µM (inactive) | > 100 µM (inactive) | > 100 µM (inactive) | > 100 µM (inactive) | > 100 µM (inactive) | > 100 µM (inactive) | > 100 µM (inactive) | > 100 µM (inactive) | 2.37 µM (inactive) | > 100 µM (inactive) | 
10 | O=C(CN(Cc1ccccc1)Cc1ccccc1)N1CCc2c([nH]c3ccccc23)C1c1cccnc1 (stereo not given) | 4.14 µM (inactive) | 27.5 µM (inactive) | 7.23 µM (inactive) | 21.2 µM (inactive) |  | 2.71 µM (inactive) | 19.5 µM (inactive) | 2.63 µM (inactive) | 3.74 µM (inactive) | 5.65 µM (inactive) | 80.9 µM (inactive) | 7.38 µM (inactive) | 4.59 µM (inactive) | 3.66 µM (inactive) | 6.1 µM (inactive) |  | 1.86 µM (inactive) | 
11 | CC(C)C(/C=C/c1ccccc1)=N\NC(=O)N/N=C(/C=C/c1ccccc1)C(C)C | 36.3 µM (inactive) | 33.8 µM (inactive) | 21.7 µM (inactive) | 74 µM (inactive) |  | 17.3 µM (inactive) | 37.7 µM (inactive) | 14.7 µM (inactive) | 19.1 µM (inactive) | 37 µM (inactive) | 40.2 µM (inactive) | 38.2 µM (inactive) | 23.1 µM (inactive) | 39.4 µM (inactive) | 28.8 µM (inactive) | 19.9 µM (inactive) | 24.3 µM (inactive) | 18.2 µM (inactive)
12 | CCCCCCCCCCCC(=O)OCC1OC(n2cc(F)c(=O)[nH]c2=O)C(NC(=O)OCc2ccccc2)C(O)C1O (stereo not given) | 21.3 µM (inactive) | 38.8 µM (inactive) | 20.3 µM (inactive) | 19.1 µM (inactive) |  | 18.5 µM (inactive) | 28.5 µM (inactive) | 30.3 µM (inactive) | 16.7 µM (inactive) | 20.6 µM (inactive) | 63.7 µM (inactive) |  | 20.8 µM (inactive) | 19.6 µM (inactive) | 21.2 µM (inactive) | 19.1 µM (inactive) | 19.4 µM (inactive) | 
13 | Cc1ccc(S(=O)(=O)N[C@H](C(=O)O)c2ccccc2)cc1 | > 100 µM (inactive) | > 100 µM (inactive) | > 100 µM (inactive) | > 100 µM (inactive) |  | > 100 µM (inactive) | > 100 µM (inactive) | > 100 µM (inactive) |  | > 100 µM (inactive) | > 100 µM (inactive) | > 100 µM (inactive) | > 100 µM (inactive) | > 100 µM (inactive) | > 100 µM (inactive) | > 100 µM (inactive) | 26.8 µM (inactive) | > 100 µM (inactive)
14 | N#CCCc1nc2ccc(Br)cc2c(=O)n1CCO | > 100 µM (inactive) | > 100 µM (inactive) | > 100 µM (inactive) | > 100 µM (inactive) |  | > 100 µM (inactive) |  | > 100 µM (inactive) |  | > 100 µM (inactive) | > 100 µM (inactive) |  | > 100 µM (inactive) | > 100 µM (inactive) | > 100 µM (inactive) | > 100 µM (inactive) | > 100 µM (inactive) | > 100 µM (inactive)
15 | Cc1cc(C(=O)NCCN(C)C)c2nc3ccccc3nc2c1 | 3.91 µM (inactive) | 4.42 µM (inactive) | 4.44 µM (inactive) | 5.05 µM (inactive) |  | 3.45 µM (inactive) | 6.79 µM (inactive) |  | 1.48 µM (inactive) | 1.97 µM (inactive) | 11.7 µM (inactive) | 7.43 µM (inactive) | 3.88 µM (inactive) | 4.98 µM (inactive) | 4.81 µM (inactive) | 4.33 µM (inactive) | 3.15 µM (inactive) | 3.44 µM (inactive)
16 | N/N=C1\C(=O)N(Cc2ccccc2)C(=O)C1C(=O)NCc1ccccc1 (stereo not given) | > 100 µM (inactive) | > 100 µM (inactive) | > 100 µM (inactive) | > 100 µM (inactive) |  | > 100 µM (inactive) | > 100 µM (inactive) | > 100 µM (inactive) | > 100 µM (inactive) | > 100 µM (inactive) |  | > 100 µM (inactive) | > 100 µM (inactive) | > 100 µM (inactive) | > 100 µM (inactive) | > 100 µM (inactive) | > 100 µM (inactive) | 
17 | COCC(=O)CP(=O)(OC)OC | > 100 µM (inactive) | > 100 µM (inactive) | > 100 µM (inactive) | > 100 µM (inactive) |  | > 100 µM (inactive) | > 100 µM (inactive) | > 100 µM (inactive) | > 100 µM (inactive) | > 100 µM (inactive) | > 100 µM (inactive) | > 100 µM (inactive) | > 100 µM (inactive) | > 100 µM (inactive) | > 100 µM (inactive) | > 100 µM (inactive) | > 100 µM (inactive) | 
18 | COc1cc2c(cc1OC)[C@]1(O)C(=O)c3ccc4c(c3O[C@@H]1CO2)C[C@H](C(C)(C)O)O4 | > 100 µM (inactive) | > 100 µM (inactive) |  | > 100 µM (inactive) |  |  | > 100 µM (inactive) | 7.29 µM (inactive) | 26.2 µM (inactive) | > 100 µM (inactive) | > 100 µM (inactive) | > 100 µM (inactive) | > 100 µM (inactive) | > 100 µM (inactive) | 85.3 µM (inactive) | > 100 µM (inactive) | 36.5 µM (inactive) | 
